Source: patent publication US20240140938A1, “PREPARATION OF TETRAHYDROINDAZOLE DERIVATIVES AS NOVEL DIACYLGLYCERIDE O-ACYLTRANSFERASE 2 INHIBITORS” (MERCK SHARP & DOHME LLC, priority 2020, published 2024)

Target: human DGAT2 (hDGAT2) (Homo sapiens (Human), UniProt Q96PD7)
Assay: DGAT2 Enzymatic Activity Assay
Assay type: biochemical
Conditions: hDGAT2 Sf-9 membrane prep, 13C18-triolein product by LC/MS/MS
How it was run: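 Enzyme source was membrane fractions from Sf-9 cells infected with untagged hDGAT2 baculovirus. Reactions ran at room temperature, and product 13C18-triolein was quantified by LC/MS/MS against a 13C21-triolein internal standard. % inhibition was normalised to high and low controls, and IC50 derived from it.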

[1] = 25 μM diolein, 5 μM 13C oleoyl-CoA

Sequence of human DGAT2 (hDGAT2) (Q96PD7 whole entry): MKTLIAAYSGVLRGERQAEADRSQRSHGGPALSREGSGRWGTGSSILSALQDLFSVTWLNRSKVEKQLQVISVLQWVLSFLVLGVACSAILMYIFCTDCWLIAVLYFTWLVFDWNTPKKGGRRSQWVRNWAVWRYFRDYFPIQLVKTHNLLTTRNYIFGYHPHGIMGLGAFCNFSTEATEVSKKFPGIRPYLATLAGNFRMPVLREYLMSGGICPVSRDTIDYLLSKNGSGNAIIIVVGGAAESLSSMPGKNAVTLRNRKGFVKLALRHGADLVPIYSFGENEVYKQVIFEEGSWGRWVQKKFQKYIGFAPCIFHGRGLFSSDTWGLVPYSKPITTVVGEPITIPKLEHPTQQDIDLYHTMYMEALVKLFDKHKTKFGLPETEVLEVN

| IC50 [1] [nM] | IC50 (unit given as nm) [nM] | Compound |
| --- | --- | --- |
| 22.2 |  | CC(C)n1nc(-c2cccc(C3CC3)c2)c2c1C[C@H](C(=O)NC1(C)CS(=O)(=O)C1)CO2 [Example 125, (S)-3-(3-cyclopropylphenyl)-1-isopropyl-N-(3-methyl-1,1-dioxidothietan-3-yl)-1,5,6,7-tetrahydropyrano[3,2-c]pyrazole-6-carboxamide] |
| 13.9 |  | C[C@]1(NC(=O)[C@@H]2CCc3c(-c4cncc(OC(F)F)c4)nn(-c4ccc(F)cn4)c3C2)CCS(=O)(=O)C1 [Example 14, (R)-3-(5-(difluoromethoxy)pyridin-3-yl)-1-(5-fluoropyridin-2-yl)-N-((S)-3-methyl-1,1-dioxidotetrahydrothiophen-3-yl)-4,5,6,7-tetrahydro-1H-indazole-6-carboxamide] |
| 7610 |  | CC(C)n1nc(-c2cccc(OC(F)F)c2)c2c1CC(C(=O)NC1(C)CS(=O)(=O)C1)OC2 (single isomer, unassigned) [EX-134b, 3-(3-(difluoromethoxy)phenyl)-1-isopropyl-N-(3-methyl-1,1-dioxidothietan-3-yl)-1,4,6,7-tetrahydropyrano[4,3-c]pyrazole-6-carboxamide] |
| 46 |  | CC(C)n1nc(-c2cc(C3CC3)ccc2F)c2c1C[C@H](C(=O)NC1(C)CS(=O)(=O)C1)CC2 [Example 83, (R)-3-(5-cyclopropyl-2-fluorophenyl)-1-isopropyl-N-(3-methyl-1,1-dioxidothietan-3-yl)-4,5,6,7-tetrahydro-1H-indazole-6-carboxamide] |
|  | 0.44 | CC1(NC(=O)C2COc3c(-c4cccc(OC(F)F)c4)nn(-c4ccc(F)cn4)c3C2)CCS(=O)(=O)C1 (stereo not drawn) [Example 118, 3-(3-(difluoromethoxy)phenyl)-1-(5-fluoropyridin-2-yl)-N-(3-methyl-1,1-dioxidotetrahydrothiophen-3-yl)-1,5,6,7-tetrahydropyrano[3,2-c]pyrazole-6-carboxamide] |
| 1210 |  | CC(C)n1nc(-c2cc(C(C)(F)F)ncc2F)c2c1C[C@H](C(=O)NC1(C)CCS(=O)(=O)CC1)CC2 [Example 92, (R)-3-(2-(1,1-difluoroethyl)-5-fluoropyridin-4-yl)-1-isopropyl-N-(4-methyl-1,1-dioxidotetrahydro-2H-thiopyran-4-yl)-4,5,6,7-tetrahydro-1H-indazole-6-carboxamide] |
| 128 |  | CC(C)(NC(=O)[C@@H]1CCc2c(-c3cccc(OC(F)F)c3)nn(C3CCOCC3)c2C1)c1ccc(C(F)(F)F)nc1 [Example 27, (R)-3-(3-(difluoromethoxy)phenyl)-1-(tetrahydro-2H-pyran-4-yl)-N-(2-(6-(trifluoromethyl)pyridin-3-yl)propan-2-yl)-4,5,6,7-tetrahydro-1H-indazole-6-carboxamide] |
| 8190 |  | CC(C)n1nc(-c2cccc(OC(F)F)c2)c2c1C[C@H](C(=O)NCc1cccnc1)CC2 [Example 62, (R)-3-(3-(difluoromethoxy)phenyl)-1-isopropyl-N-(pyridin-3-ylmethyl)-4,5,6,7-tetrahydro-1H-indazole-6-carboxamide] |
| 15.6 |  | CC(C)n1nc(-c2cc(OC3CC3)ccc2F)c2c1C[C@H](C(=O)NC1(C)CS(=O)(=O)C1)CC2 [Example 85, (R)-3-(5-cyclopropoxy-2-fluorophenyl)-1-isopropyl-N-(3-methyl-1,1-dioxidothietan-3-yl)-4,5,6,7-tetrahydro-1H-indazole-6-carboxamide] |
| 26.2 |  | CC(C)n1nc(-c2cc(OC(F)F)ccc2F)c2c1C[C@H](C(=O)NC1(C)CCN(C(=O)C3CC3)C1)CC2 (stereo partly drawn) [Example 61, (6R)-N-(1-(cyclopropanecarbonyl)-3-methylpyrrolidin-3-yl)-3-(5-(difluoromethoxy)-2-fluorophenyl)-1-isopropyl-4,5,6,7-tetrahydro-1H-indazole-6-carboxamide] |
| 59.8 |  | CC(C)n1nc(-c2cccc(OC(F)F)c2)c2c1C[C@H](C(=O)N[C@@]1(C)CCS(=O)(=O)C1)CC2 [Example 25, (R)-3-(3-(difluoromethoxy)phenyl)-1-isopropyl-N-((S)-3-methyl-1,1-dioxidotetrahydrothiophen-3-yl)-4,5,6,7-tetrahydro-1H-indazole-6-carboxamide] |
| 17.4 |  | N#CC1(NC(=O)[C@@H]2CCc3c(-c4cncc(OC(F)F)c4)nn(-c4ccc(F)cn4)c3C2)CCOC1 (single isomer, unassigned) [Example 15a] |
| 172 |  | CCOc1cc(-c2nn(C(C)C(C)(C)O)c3c2CC[C@@H](C(=O)N[C@@]2(C)CCS(=O)(=O)C2)C3)c(F)cn1 (single isomer, unassigned) [Example 108b] |
|  | 499 | CC1(NC(=O)C2Cc3c(c(-c4cccc(OC(F)F)c4)nn3C3CCOCC3)C(F)(F)C2)CCS(=O)(=O)C1 (stereo not drawn) [Example 117, 3-(3-(difluoromethoxy)phenyl)-4,4-difluoro-N-(3-methyl-1,1-dioxidotetrahydrothiophen-3-yl)-1-(tetrahydro-2H-pyran-4-yl)-4,5,6,7-tetrahydro-1H-indazole-6-carboxamide] |
| 10.2 |  | CC1(NC(=O)[C@@H]2CCc3c(-c4cccc(OC(F)F)c4)nn(-c4ncc(F)cc4F)c3C2)CS(=O)(=O)C1 [Example 9, (R)-3-(3-(difluoromethoxy)phenyl)-1-(3,5-difluoropyridin-2-yl)-N-(3-methyl-1,1-dioxidothietan-3-yl)-4,5,6,7-tetrahydro-1H-indazole-6-carboxamide] |
| > 10000 |  | CC(C)n1nc(-c2cc(C#N)ccc2F)c2c1C[C@H](C(=O)NC1(C)CS(=O)(=O)C1)CC2 [Example 101, (R)-3-(5-cyano-2-fluorophenyl)-1-isopropyl-N-(3-methyl-1,1-dioxidothietan-3-yl)-4,5,6,7-tetrahydro-1H-indazole-6-carboxamide] |
| 105 |  | CC1(NC(=O)[C@@H]2CCc3c(-c4cc(OC(F)F)ccc4F)nn(C4CCCC4O)c3C2)CS(=O)(=O)C1 (single isomer, unassigned) [Example 114d] |
| 35.2 |  | CC(C)n1nc(-c2cccc(OCC(F)(F)F)c2)c2c1C[C@H](C(=O)N[C@@]1(C)CCS(=O)(=O)C1)CC2 [Example 35, (R)-1-isopropyl-N-((S)-3-methyl-1,1-dioxidotetrahydrothiophen-3-yl)-3-(3-(2,2,2-trifluoroethoxy)phenyl)-4,5,6,7-tetrahydro-1H-indazole-6-carboxamide] |
| > 10000 |  | CC(C)n1nc(-c2cccc(C3(C(F)(F)F)CC3)c2)c2c1C[C@H](C(=O)NC1(C)CS(=O)(=O)C1)CC2 [Example 90, (R)-1-isopropyl-N-(3-methyl-1,1-dioxidothietan-3-yl)-3-(3-(1-(trifluoromethyl)cyclopropyl)phenyl)-4,5,6,7-tetrahydro-1H-indazole-6-carboxamide] |
| > 10000 |  | Cc1nnc(NC(=O)[C@@H]2CCc3c(-c4cccc(OC(F)F)c4)nn(C4CCOCC4)c3C2)s1 [Example 67, (R)-3-(3-(difluoromethoxy)phenyl)-N-(5-methyl-1,3,4-thiadiazol-2-yl)-1-(tetrahydro-2H-pyran-4-yl)-4,5,6,7-tetrahydro-1H-indazole-6-carboxamide] |
| > 10000 |  | C[C@]1(NC(=O)[C@@H]2CCc3c(-c4cncc(OC(F)F)n4)nn(-c4ccc(F)cn4)c3C2)CCS(=O)(=O)C1 [Example 19, (R)-3-(6-(difluoromethoxy)pyrazin-2-yl)-1-(5-fluoropyridin-2-yl)-N-((S)-3-methyl-1,1-dioxidotetrahydrothiophen-3-yl)-4,5,6,7-tetrahydro-1H-indazole-6-carboxamide] |
